Assays:
[1] = system: C. elegans host defense pathway genes; experiment: nanoString expression of 115 immune- and stress-responsive genes; conditions: 100 μM LK molecules, 16 h
Method: The ratio of MIC to EC was determined for each of the 69 compounds.
Analysis of the expression of 115 immune- and stress-responsive genes using nanoString technology. Download Table S1, XLSX file, 0.02 MB.
For nanoString-based (nanoString Technologies, Seattle, WA) experiments, 2,000 wild-type, young adult worms were exposed to 100 μM LK molecules or DMSO control in S Basal medium in 6-well plates for 16 h. RNA purification and gene expression analysis were performed according to nanoString guidelines. Two biological replicates were tested for each condition.

[2] = system: C. elegans exposed to P. aeruginosa strain PA14; experiment: P. aeruginosa slow-killing assay (agar); type: in vivo, Caenorhabditis elegans
Description: The finding that each of the compounds activated PMK-1/p38 MAPK targets was of interest, as this pathway is associated with enhanced immunity against multiple bacterial pathogens in agar-based C. elegans assays. Therefore, we tested whether these compounds could promote survival in an agar-based, high-colonization pathogenesis model known as slow killing. Loss of PMK-1 activity substantially compromises survival in the slow-killing assay ([16], [47]). Wild-type, young adult worms were exposed to P. aeruginosa strain PA14 on agar plates impregnated with each of the five compounds. […] To see whether this depended upon the PMK-1 pathway, LK32, LK38, and LK56 were retested in worms where RNAi was used to knock down pmk-1/MAPK or atf-7/ATF7 (a key transcription factor whose activity is modulated by PMK-1 [63, 64]) (Fig. 9; see Table S2 in the supplemental material for TD50 and overall statistical significance).
FIG 8 Four LK molecules extend C. elegans life span in the slow-killing assay. […] The data shown are from a representative replicate. Each of the three biological replicates was comprised of three plates per condition, with each plate containing ∼60 worms. Statistical significance was calculated using a log-rank test. Worms that left the surface of the plate were excluded from analysis (see Table S2 in the supplemental material for TD50 and exact P values).
FIG 9 Rescue in slow killing by a subset of LK compounds depends upon the PMK-1/p38 MAPK pathway. Wild-type L4 worms were reared on RNAi targeting pmk-1/p38 MAPK, atf-7/ATF-7, or empty vector and placed onto slow-killing plates containing DMSO or LK32 (A and B), LK38 (C and D), or LK56 (E and F) at 50 µM. Starting at 24 h, worms were scored every 12 h for survival until all worms perished. Each of the three biological replicates was comprised of three plates, each plate contained approximately 50 to 70 worms. Statistical significance was calculated using log-rank test (see Table S2 in the supplemental material for TD50 and exact P values). For vector RNAi, DMSO versus compound, P < 0.001 for LK38, LK56, and LK32.
Supplementary file : FIG S5 NSY-1 and SEK-1, upstream members of the PMK-1/p38 MAPK pathway, are required for LK38-mediated rescue. Young adult wild-type, nsy-1/MAP3K15(ag3), or sek-1/MAP2K6(km-4) mutants were exposed to P. aeruginosa in the slow-killing assay in the presence of DMSO or LK38. Data for each condition at each time point represent the average value for three plates from one representative replicate (of three replicates total). Each plate contained ∼60 worms. P values were calculated using a log-rank test (see Table S2 in the supplemental material for the TD50 and exact P values). For wild-type DMSO versus LK38 P < 0.001. No statistically significant difference was measured between LK38 and DMSO for either mutant. Download FIG S5, PDF file, 0.1 MB.
Slow-killing (SK) plates were made as previously reported ([92]). Compounds were added to molten SK agar before pouring plates. After solidifying, 40 µl of PA14 overnight culture was spread on plates before incubating plates at 37°C for 24 h, followed by 25°C for 24 h. 5-fluoro-2′-deoxyuridine (FUDR) (0.1 mg/ml) was dropped on plates 30 min prior to picking worms, to ensure nematode sterility. Fifty to seventy L4-stage, wild-type worms were picked onto plates and scored every 12 h after the first 24 h, until all worms were dead. Three biological replicates were performed.

CN(C)/N=N/c1ccc(-c2cn(Cc3ccccc3)cn2)cc1 [LK38]
B0024.4 expression, induction [1]: 3.17 fold
C02B4.2 nhr-17 expression, induction [1]: 1.71 fold
C06B3.7 expression, induction [1]: 1.11 fold
C07G3.2 irg-1 expression, induction [1]: 2.65 fold
C12C8.1 hsp-70 expression, induction [1]: 0.53 fold
C15F1.7 sod-1 expression, induction [1]: 1.43 fold
C29F7.2 expression, induction [1]: 32.57 fold
C31A11.5 oac-6 expression, induction [1]: 9.73 fold
C32D5.12 expression, induction [1]: 3.71 fold
C32H11.1 expression, induction [1]: 18.31 fold
C32H11.3 expression, induction [1]: 11.99 fold
C34G6.4 pgp-2 expression, induction [1]: 4.68 fold
C37C3.10 expression, induction [1]: 2.39 fold
C37H5.8 hsp-6 expression, induction [1]: 1.74 fold
C49G7.5 irg-2 expression, induction [1]: 3.91 fold
F08F8.5 numr-1 expression, induction [1]: 1.76 fold
F08H9.4 expression, induction [1]: 1.05 fold
F14F9.3 expression, induction [1]: 6.65 fold
F22B5.4 expression, induction [1]: 4.88 fold
F22H10.2 expression, induction [1]: 0.89 fold
F26A3.4 expression, induction [1]: 1.16 fold
F35E8.11 cdr-1 expression, induction [1]: 136.66 fold
F35G2.4 phy-2 expression, induction [1]: 1.91 fold
F37B12.2 gcs-1 expression, induction [1]: 1.21 fold
F43E2.8 hsp-4 expression, induction [1]: 1.31 fold
F44E5.5 expression, induction [1]: 0.94 fold
F49F1.6 expression, induction [1]: 3.06 fold
F49F1.7 expression, induction [1]: 27.43 fold
F49H6.13 expression, induction [1]: 1.54 fold
F54B8.4 expression, induction [1]: 5.05 fold
F55G11.2 expression, induction [1]: 2.13 fold
F59A7.1 clec-206 expression, induction [1]: 56.72 fold
F59B10.4 expression, induction [1]: 3.99 fold
H12D21.1 nspa-1 expression, induction [1]: 0.84 fold
H23N18.1 ugt-13 expression, induction [1]: 7.19 fold
H23N18.3 ugt-8 expression, induction [1]: 35.45 fold
K05B2.4 expression, induction [1]: 25.19 fold
K08F4.7 gst-4 expression, induction [1]: 1.42 fold
K09A9.1 nipi-3 expression, induction [1]: 2.18 fold
K10D11.2 expression, induction [1]: 2.89 fold
K10G4.3 expression, induction [1]: 3.15 fold
R03D7.6 gst-5 expression, induction [1]: 21.05 fold
R08H2.1 dhs-23 expression, induction [1]: 243.00 fold
R10E8.3 expression, induction [1]: 1.97 fold
T19D12.3 expression, induction [1]: 1.91 fold
T19H12.1 ugt-9 expression, induction [1]: 8.16 fold
T21E8.1 pgp-6 expression, induction [1]: 3.69 fold
T22B7.3 expression, induction [1]: 1.08 fold
T24C4.4 expression, induction [1]: 1.30 fold
T24E12.5 expression, induction [1]: 2.60 fold
T27E4.3 hsp-16.48 expression, induction [1]: 0.91 fold
T27E4.8 hsp-16.1 expression, induction [1]: 0.90 fold
T27F6.8 expression, induction [1]: 3.28 fold
T28C12.4 expression, induction [1]: 8.72 fold
W02D9.10 expression, induction [1]: 0.89 fold
Y22D7AL.5 hsp-60 expression, induction [1]: 0.89 fold
Y38E10A.15 nspe-7 expression, induction [1]: 1.82 fold
Y46H3A.2 hsp-16.41 expression, induction [1]: 0.62 fold
Y46H3A.3 hsp-16.2 expression, induction [1]: 0.79 fold
Y56A3A.33 expression, induction [1]: 1.72 fold
Y58A7A.5 expression, induction [1]: 2.03 fold
ZC376.7 atfs-1 expression, induction [1]: 2.11 fold
ZC443.6 ugt-16 expression, induction [1]: 78.74 fold
ZK697.6 gst-21 expression, induction [1]: 47.19 fold
TD50, slow killing ([2]; N2 wild-type, Fig S5): 59.5 h
TD50, slow killing ([2]; atf-7 RNAi, 50 µM, Fig 9): 36.8 h
TD50, slow killing ([2]; nsy-1(ag3) mutant, Fig S5): 26.5 h
TD50, slow killing ([2]; pmk-1 RNAi, 50 µM, Fig 9): 35.6 h
Rescue in slow killing on disruption of the PMK-1 MAPK pathway ([2]; pmk-1 or atf-7 RNAi, 50 µM): completely dependent upon the PMK-1/MAPK pathways
TD50, slow killing ([2]; sek-1(km4) mutant, Fig S5): 27.6 h
TD50, slow killing ([2]; vector RNAi, 50 µM, Fig 9 panels A-B, C, E): 65.2 h
TD50, slow killing ([2]; vector RNAi, 50 µM, Fig 9 panels D, F): 53.5 h
TD50, slow killing ([2]; wild-type worms, 50 µM, Fig 8 (DMSO 58.9)): 59.5 h
Survival in slow-killing assay vs DMSO ([2]; wild-type young adult worms, 50 µM): improved survival

Source: PMC7845594, “Novel Immune Modulators Enhance Caenorhabditis elegans Resistance to Multiple Pathogens” (mSphere, 2021)
